Patent publication US20250195521A1 (Revolution Medicines, Inc., priority 2020, published 2025)

Each compound was assayed on K-Ras G12C (NCI-H358 cells) (assay: Potency assay: pERK in NCI-H358 cells). Settings: Homo sapiens, NCI-H358, 4 h, read-out: pERK EC50 (H358 KRAS G12C).
Type: cell-based, human
Method: The purpose of this assay is to measure the ability of test compounds to inhibit K-Ras in cells. […] This procedure measures a decrease in cellular pERK in response to test compounds. The procedure described below in NCI-H358 cells is applicable to K-Ras G12C.
Note: This protocol may be executed substituting other cell lines to characterize inhibitors of other RAS variants, including, for example, AsPC-1 (K-Ras G12D), Capan-1 (K-Ras G12V), or NCI-H1355 (K-Ras G13C).
NCI-H358 cells were grown and maintained using media and procedures recommended by the ATCC. On the day prior to compound addition, cells were plated in 384-well cell culture plates (40 μl/well) and grown overnight in a 37° C., 5% CO2 incubator. Test compounds were prepared in 10, 3-fold dilutions in DMSO, with a high concentration of 10 mM. On the day of assay, 40 nL of test compound was added to each well of cell culture plate using an Echo550 liquid handler (LabCyte®). Concentrations of test compound were tested in duplicate. After compound addition, cells were incubated 4 hours at 37° C., 5% CO2. Following incubation, culture medium was removed and cells were washed once with phosphate buffered saline.
In some experiments, cellular pERK level was determined using the AlphaLISA SureFire Ultra p-ERK1/2 Assay Kit (PerkinElmer). Cells were lysed in 25 μL lysis buffer, with shaking at 600 RPM at room temperature. […] After a 2-hour incubation in the dark, 5 μL donor mix was added, plate was sealed, and incubated 2 hours at room temperature. Signal was read on an Envision plate reader (PerkinElmer) using standard AlphaLISA settings. Analysis of raw data was carried out in Excel (Microsoft) and Prism (GraphPad). Signal was plotted vs. the decadal logarithm of compound concentration, and IC50 was determined by fitting a 4-parameter sigmoidal concentration response model.
In other experiments, cellular pERK was determined by In-Cell Western. […] Fixed cells were washed 4 times for 5 minutes with TBS containing 0.1% Triton X-100 (TBST) and then blocked with 100 μL Odyssey blocking buffer (LI-COR) for 60 minutes at room temperature. Primary antibody (PERK, CST-4370, Cell Signaling Technology) was diluted 1:200 in blocking buffer, and 50 μL was added to each well and incubated overnight at 4° C. Cells were washed 4 times for 5 minutes with TBST. Secondary antibody (IR-800CW rabbit, LI-COR, diluted 1:800) and DNA stain DRAQ5 (LI-COR, diluted 1:2000) were added and incubated 1-2 hours at room temperature. Cells were washed 4 times for 5 minutes with TBST. Plates were scanned on a Li—COR Odyssey CLx Imager. Analysis of raw data was carried out in Excel (Microsoft) and Prism (GraphPad). Signal was plotted vs. the decadal logarithm of compound concentration, and IC50 was determined by fitting a 4-parameter sigmoidal concentration response model.

Compound	EC50 [µM]
CCn1c(-c2cccnc2[C@H](C)OC)c2c3cc(ccc31)-c1cc(O)cc(c1)C[C@H](NC(=O)[C@H](C(C)C)N(C)C(=O)[C@@H]1CC1(F)F)C(=O)N1CCC[C@H](N1)C(=O)OCC(C)(C)C2 [Compound A167]	< 5

Same assay, conditions: Homo sapiens; NCI-H358 cells, 4 hours; read-out: pERK EC50 (H358 KRAS G12C)

Compound	EC50 [µM]
CCn1c(-c2cccnc2[C@H](C)OC)c2c3cc(ccc31)-c1cc(O)cc(c1)C[C@H](NC(=O)[C@H](C(C)C)N(C)C(=O)[C@@H]1CCNC1)C(=O)N1CCC[C@H](N1)C(=O)OCC(C)(C)C2 [Compound A129]	< 5
CCn1c(-c2cccnc2[C@H](C)OC)c2c3cc(ccc31)-c1cc(O)cc(c1)C[C@H](NC(=O)[C@H](C(C)C)N(C)C(=O)C1CC3CC1CN3)C(=O)N1CCC[C@H](N1)C(=O)OCC(C)(C)C2 (stereo partly drawn) [Compound A133]	< 5
CCn1c(-c2cccnc2[C@H](C)OC)c2c3cc(ccc31)-c1csc(n1)C[C@H](NC(=O)[C@H](C1CCCC1)N(C)C(C)=O)C(=O)N1CCC[C@H](N1)C(=O)OCC(C)(C)C2 [Compound A141]	< 5
CCn1c(-c2cccnc2[C@H](C)OC)c2c3cc(ccc31)-c1cc(O)cc(c1)C[C@H](NC(=O)[C@H](C(C)C)N(C)C(=O)C1CC13CCNC3)C(=O)N1CCC[C@H](N1)C(=O)OCC(C)(C)C2 (stereo partly drawn) [Compound A148]	< 5
C=C[C@@H]1C[C@]1(N)C(=O)N(C)[C@H](C(=O)N[C@H]1Cc2cc(O)cc(c2)-c2ccc3c(c2)c(c(-c2cccnc2[C@H](C)OC)n3CC)CC(C)(C)COC(=O)[C@@H]2CCCN(N2)C1=O)C(C)C [Compound A149]	< 5
CCn1c(-c2cccnc2[C@H](C)OC)c2c3cc(ccc31)-c1cc(O)cc(c1)C[C@H](NC(=O)[C@H](C(C)C)N(C)C(=O)C1(C#N)CC1)C(=O)N1CCC[C@H](N1)C(=O)OCC(C)(C)C2 [Compound A159]	< 5
CCn1c(-c2cccnc2[C@H](C)OC)c2c3cc(ccc31)-c1cc(O)cc(c1)C[C@H](NC(=O)[C@H](C(C)C)N(C)C(=O)[C@H]1CC1(F)F)C(=O)N1CCC[C@H](N1)C(=O)OCC(C)(C)C2 [Compound A166]	< 5
CCn1c(-c2cccnc2[C@H](C)OC)c2c3cc(ccc31)-c1cc(O)cc(c1)C[C@H](NC(=O)[C@H](C(C)C)N(C)C(=O)C1Cc3cccnc3C1)C(=O)N1CCC[C@H](N1)C(=O)OCC(C)(C)C2 (stereo partly drawn) [Compound A250]	< 5
CCn1c(-c2cnccc2COC)c2c3cc(ccc31)-c1cc(O)cc(c1)C[C@H](NC(=O)C1CCCC1C(F)F)C(=O)N1CCC[C@H](N1)C(=O)OCC(C)(C)C2 (stereo partly drawn) [Compound A261]	< 5
CCN1C[C@@H](C(=O)N(C)[C@H](C(=O)N[C@H]2Cc3cc(O)cc(c3)-c3ccc4c(c3)c(c(-c3cnccc3COC)n4CC)CC(C)(C)COC(=O)[C@@H]3CCCN(N3)C2=O)C(C)C)CC1=O [Compound A262]	< 5
CCn1c(-c2cccnc2[C@H](C)OC)c2c3cc(ccc31)-c1csc(n1)C[C@H](NC(=O)N1CCCC1)C(=O)N1CCC[C@H](N1)C(=O)OCC(C)(C)C2 [Compound A267]	< 5
CCn1c(-c2cccnc2[C@H](C)OC)c2c3cc(ccc31)-c1csc(n1)C[C@H](NC(=O)[C@H](C(C)C)N(C)C(=O)N1CC[C@@H]1C(=O)NC)C(=O)N1CCC[C@H](N1)C(=O)OCC(C)(C)C2 [Compound A281]	< 5
CCn1c(-c2cccnc2[C@H](C)OC)c2c3cc(ccc31)-c1csc(n1)C[C@H](NC(=O)[C@H](C(C)C)N(C)C(=O)N1CCOC3(CN(C)C3)C1)C(=O)N1CCC[C@H](N1)C(=O)OCC(C)(C)C2 [Compound A294]	< 5
CCn1c(-c2cccnc2[C@H](C)OC)c2c3cc(ccc31)-c1csc(n1)C[C@H](NC(=O)[C@H](C(C)C)N(C)C(=O)N1CC(n3nc(C)cc3C)C1)C(=O)N1CCC[C@H](N1)C(=O)OCC(C)(C)C2 [Compound A297]	< 5
CCn1c(-c2cccnc2[C@H](C)OC)c2c3cc(ccc31)-c1csc(n1)C[C@H](NC(=O)[C@H](C(C)C)N(C)C(=O)N1CC(OC(F)F)C1)C(=O)N1CCC[C@H](N1)C(=O)OCC(C)(C)C2 [Compound A302]	< 5
CCn1c(-c2cccnc2[C@H](C)OC)c2c3cc(ccc31)-c1csc(n1)C[C@H](NC(=O)[C@H](C(C)C)N(C)C(=O)N1CCN(C(=O)CO)CC1)C(=O)N1CCC[C@H](N1)C(=O)OCC(C)(C)C2 [Compound A306]	< 5

Compound	EC50 [µM]
CCn1c(-c2cccnc2[C@H](C)OC)c2c3cc(ccc31)-c1csc(n1)C[C@H](NC(=O)[C@H](C(C)C)N(C)C(=O)N1CCO[C@@H](C)C1)C(=O)N1CCC[C@H](N1)C(=O)OCC(C)(C)C2 [Compound A309]	< 5
CCN(CC)C1CN(C(=O)N(C)[C@H](C(=O)N[C@H]2Cc3nc(cs3)-c3ccc4c(c3)c(c(-c3cccnc3[C@H](C)OC)n4CC)CC(C)(C)COC(=O)[C@@H]3CCCN(N3)C2=O)C(C)C)C1 [Compound A319]	< 5
CCn1c(-c2cccnc2[C@H](C)OC)c2c3cc(ccc31)-c1csc(n1)C[C@H](NC(=O)[C@H](C(C)C)N(C)C(=O)N(C)CC(C)C)C(=O)N1CCC[C@H](N1)C(=O)OCC(C)(C)C2 [Compound A332]	< 5
CCn1c(-c2cccnc2[C@H](C)OC)c2c3cc(ccc31)-c1csc(n1)C[C@H](NC(=O)[C@H](C(C)C)N(C)C(=O)N1CC(NC)C1)C(=O)N1CCC[C@H](N1)C(=O)OCC(C)(C)C2 [Compound A337]	< 5
CCN(C(=O)N(C)[C@H](C(=O)N[C@H]1Cc2nc(cs2)-c2ccc3c(c2)c(c(-c2cccnc2[C@H](C)OC)n3CC)CC(C)(C)COC(=O)[C@@H]2CCCN(N2)C1=O)C(C)C)C1CC1 [Compound A352]	< 5
CCn1c(-c2cccnc2[C@H](C)OC)c2c3cc(ccc31)-c1csc(n1)C[C@H](NC(=O)[C@H](C(C)C)N(C)C(=O)N(C)C1CC1)C(=O)N1CCC[C@H](N1)C(=O)OCC(C)(C)C2 [Compound A353]	< 5
CCn1c(-c2cccnc2[C@H](C)OC)c2c3cc(ccc31)-c1csc(n1)C[C@H](NC(=O)[C@H](C(C)C)N(C)C(=O)N1CC(CO)C1)C(=O)N1CCC[C@H](N1)C(=O)OCC(C)(C)C2 [Compound A356]	< 5
CCn1c(-c2cccnc2[C@H](C)OC)c2c3cc(ccc31)-c1csc(n1)C[C@H](NC(=O)[C@H]1CCO1)C(=O)N1CCC[C@H](N1)C(=O)OCC(C)(C)C2 [Compound A360]	< 5
CCn1c(-c2cccnc2[C@H](C)OC)c2c3cc(ccc31)-c1cc(O)cc(c1)C[C@H](NC(=O)[C@H](C(C)C)N(C)C(=O)[C@H]1CC[C@@H](CN(C)C)O1)C(=O)N1CCC[C@H](N1)C(=O)OCC(C)(C)C2 [Compound A397]	< 5
CCn1c(-c2cccnc2[C@H](C)OC)c2c3cc(ccc31)-c1cc(O)cc(c1)C[C@H](NC(=O)[C@H](C(C)C)N(C)C(=O)[C@@H]1OC[C@@H]3CCC[C@@H]31)C(=O)N1CCC[C@H](N1)C(=O)OCC(C)(C)C2 [Compound A407]	< 5
CCn1c(-c2cccnc2[C@H](C)OC)c2c3cc(ccc31)-c1csc(n1)C[C@H](NC(=O)[C@H](C(C)C)N(C)C(=O)N1CCN(C(=O)C3(N(C)C)CC3)CC1)C(=O)N1CCC[C@H](N1)C(=O)OCC(C)(C)C2 [Compound A443]	< 5
CCn1c(-c2cccnc2[C@H](C)OC)c2c3cc(ccc31)-c1csc(n1)C[C@H](NC(=O)[C@H](C(C)C)N(C)C(=O)N1CC(N)(C#N)C1)C(=O)N1CCC[C@H](N1)C(=O)OCC(C)(C)C2 [Compound A456]	< 5
CCn1c(-c2cc(N3CCN(C)CC3)cnc2[C@H](C)OC)c2c3cc(ccc31)-c1csc(n1)C[C@H](NC(=O)[C@H](C(C)C)N(C)C(=O)N1CC(N(C)C)C1)C(=O)N1CCC[C@H](N1)C(=O)OCC(C)(C)C2 [Compound A477]	< 5
CCn1c(-c2cccnc2[C@H](C)OC)c2c3cc(ccc31)-c1csc(n1)C[C@H](NC(=O)[C@H](C(C)C)N(C)C(=O)N1CCCC13CCN(C)CC3)C(=O)N1CCC[C@H](N1)C(=O)OCC(C)(C)C2 [Compound A498]	< 5
CCn1c(-c2cccnc2[C@H](C)OC)c2c3cc(ccc31)-c1csc(n1)C[C@H](NC(=O)[C@H](C(C)C)N(C)C(=O)N1CC3(CN(C)CCO3)C1)C(=O)N1CCC[C@H](N1)C(=O)OCC(C)(C)C2 [Compound A499]	< 5
CCn1c(-c2cccnc2[C@H](C)OC)c2c3cc(ccc31)-c1csc(n1)C[C@H](NC(=O)[C@H](C(C)C)N(C)C(=O)N1CCC[C@H]1CN(C)C)C(=O)N1CCC[C@H](N1)C(=O)OCC(C)(C)C2 [Compound A519]	< 5
